Laboratory results as given in US9149038B2, “4-amino-6-(heterocyclic)picolinates and 6-amino-2-(heterocyclic)pyrimidine-4-carboxylates and their use as herbicides” (Dow AgroSciences LLC, priority 2013, dated 2015).
Like-named read-outs stand apart in the source and are kept apart here.

What was measured:
Type in all cases: in vivo
[1] = test system: Key Grass and Sedge Weeds as well as Grass Crops; assay: Post-Emergent Test II: postemergent herbicidal activity, visual rating after 14 d (Table 8); conditions: post-emergence, 336 h; for pest or weed control at 35 g/ha: 35 g ai/ha; for pest or weed control at 70 g/ha: 70 g ai/ha; for pest or weed control at 140 g/ha: 140 g ai/ha; for pest or weed control at 280 g/ha: 280 g ai/ha
In short: (§1)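 Greenhouse plants at first or second true leaf stage sprayed with compound in acetone/DMSO-based spray solution with crop oil concentrate and Triton X-155 at 187 L/ha, tested at highest rate and ½× to 1/16× dilutions; solvent blank controls. Injury rated visually 0–100% versus untreated plants after 14 d.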

[2] = test system: Key Broadleaf and Grass Weed as well as Crop Species; assay: Post-Emergent Test I: postemergent herbicidal activity, visual phytotoxicity rating 10 days after treatment (Table 5); conditions: 4 kg ai/ha; for pest or weed control at 4000 g/ha: post-emergence, 240 h, 10 days after application
Method: Herbicidal evaluations were made visually on a scale of 0 to 100 where 0 represents no activity and 100 represents complete plant death. Post-Emergent Test I: Seeds of test species were obtained from commercial suppliers and planted into a 5″-round pot containing soil-less media mix (Metro-Mix 360®, Sun Gro Horticulture). Postemergence treatments were planted 8-12 days (d) prior to application and cultured in a greenhouse equipped with supplemental light sources to provide a 16 h photoperiod at 24-29° C. All pots were surface irrigated. Approximately 10 milligrams (mg) of each compound were dissolved in 1.3 mL acetone-DMSO (97:3, volume per volume (v/v)) and diluted with 4.1 mL water-isopropanol-crop oil concentrate (78:20:2, v/v/v) containing 0.02% Triton X-155. Treatments were serial diluted with the above formulation solvent to provide 1.85, 0.926, 0.462 and 0.231 milligrams per milliliter (mg/mL) of test compound delivered in 2.7 mL/pot (roughly equivalent to 4.0, 2.0, 1.0, and 0.5 kg/ha, respectively). Formulated compounds were applied using a DeVilbiss® compressed air sprayer at 2-4 pounds per square inch (psi). Following treatment, pots were returned to the greenhouse for the duration of the experiment. All pots were sub-irrigated as needed to provide optimum growing conditions. All pots were fertilized one time per week by subirrigating with Peters Peat-Lite Special® fertilizer (20-10-20). Phytotoxicity ratings were obtained 10 days after treatment postemergence applications. All evaluations were made visually on a scale of 0 to 100 where 0 represents no activity and 100 represents complete plant death and are presented as indicated in Table 4.

[3] = test system: Key Broadleaf Weed and Crop Species; assay: Post-Emergent Test II: postemergent herbicidal activity, visual rating after 14 d (Table 7); conditions: post-emergence, 336 h; for pest or weed control at 35 g/ha: 35 g ai/ha; for pest or weed control at 70 g/ha: 70 g ai/ha; for pest or weed control at 140 g/ha: 140 g ai/ha; for pest or weed control at 280 g/ha: 280 g ai/ha
In short: as §1

[4] = barnyardgrass (Echinochloa crus-galli), read-out: Visual Growth Reduction (%) 14 Days After Application ECHCG
[5] = giant foxtail (Setaria faberi), read-out: Visual Growth Reduction (%) 14 Days After Application SETFA
[6] = maize, corn (Zea mays), read-out: Visual Growth Reduction (%) 14 Days After Application ZEAMX
[7] = rice (Oryza sativa), read-out: Visual Growth Reduction (%) 14 Days After Application ORYSA
[8] = wheat, spring (Triticum aestivum), read-out: Visual Growth Reduction (%) 14 Days After Application TRZAS
[9] = yellow nutsedge (Cyperus esculentus), read-out: Visual Growth Reduction (%) 14 Days After Application CYPES
[10] = lambsquarters (Chenopodium album), read-out: Visual Growth Reduction (%) 14 Days After Application CHEAL
[11] = oilseed rape, canola (Brassica napus), read-out: Visual Growth Reduction (%) 14 Days After Application BRSNN
[12] = redroot pigweed (Amaranthus retroflexus), read-out: Visual Growth Reduction (%) 14 Days After Application AMARE
[13] = sunflower (Helianthus annuus), read-out: Visual Growth Reduction (%) 14 Days After Application HELAN
[14] = velvetleaf (Abutilon theophrasti), read-out: Visual Growth Reduction (%) 14 Days After Application ABUTH
[15] = wild poinsettia (Euphorbia heterophylla), read-out: Visual Growth Reduction (%) 14 Days After Application EPHHL

COC(=O)c1nc(-c2cccc3c2OCO3)c(F)c(N)c1Cl [Compound 71, Methyl 4-amino-6-(benzo[d][1,3]dioxol-4-yl)-3-chloro-5-fluoropicolinate]
G (0-29): Visual Growth Reduction (%) 10 Days After Application ECHCG ([2]; barnyardgrass (Echinochloa crus-galli))
60 to 74%: pest or weed control at 35 g/ha [3, 12] | pest or weed control at 35 g/ha [3, 14]
95 to 100%: pest or weed control at 4000 g/ha ([2]; sunflower (Helianthus annuus), read-out: Visual Growth Reduction (%) 10 Days After Application HELAN) | pest or weed control at 35 g/ha [3, 10] | pest or weed control at 70 g/ha [3, 10] | pest or weed control at 140 g/ha [3, 10] | pest or weed control at 280 g/ha [3, 10] | pest or weed control at 280 g/ha [3, 11] | pest or weed control at 70 g/ha [3, 12] | pest or weed control at 140 g/ha [3, 12] | pest or weed control at 280 g/ha [3, 12] | pest or weed control at 70 g/ha [3, 13] | pest or weed control at 140 g/ha [3, 13] | pest or weed control at 280 g/ha [3, 13] | pest or weed control at 140 g/ha [3, 14] | pest or weed control at 280 g/ha [3, 14]
75 to 84%: pest or weed control at 4000 g/ha ([2]; ivyleaf morningglory (Ipomoea hederecea), read-out: Visual Growth Reduction (%) 10 Days After Application IPOHE) | pest or weed control at 70 g/ha [3, 14]
45 to 59%: pest or weed control at 280 g/ha [1, 9]
0 to 29%: pest or weed control at 35 g/ha [1, 4] | pest or weed control at 70 g/ha [1, 4] | pest or weed control at 140 g/ha [1, 4] | pest or weed control at 280 g/ha [1, 4] | pest or weed control at 35 g/ha [1, 5] | pest or weed control at 70 g/ha [1, 5] | pest or weed control at 140 g/ha [1, 5] | pest or weed control at 280 g/ha [1, 5] | pest or weed control at 35 g/ha [1, 6] | pest or weed control at 70 g/ha [1, 6] | pest or weed control at 140 g/ha [1, 6] | pest or weed control at 280 g/ha [1, 6] | pest or weed control at 35 g/ha [1, 7] | pest or weed control at 70 g/ha [1, 7] | pest or weed control at 140 g/ha [1, 7] | pest or weed control at 280 g/ha [1, 7] | pest or weed control at 35 g/ha [1, 8] | pest or weed control at 70 g/ha [1, 8] | pest or weed control at 140 g/ha [1, 8] | pest or weed control at 280 g/ha [1, 8] | pest or weed control at 35 g/ha [1, 9] | pest or weed control at 70 g/ha [1, 9] | pest or weed control at 4000 g/ha ([2]; giant foxtail (Setaria faberi), read-out: Visual Growth Reduction (%) 10 Days After Application SETFA) | pest or weed control at 4000 g/ha ([2]; wild oats (Avena fatua), read-out: Visual Growth Reduction (%) 10 Days After Application AVEFA) | pest or weed control at 35 g/ha [3, 15] | pest or weed control at 70 g/ha [3, 15] | pest or weed control at 140 g/ha [3, 15] | pest or weed control at 280 g/ha [3, 15]
85 to 94%: pest or weed control at 70 g/ha [3, 11] | pest or weed control at 140 g/ha [3, 11] | pest or weed control at 35 g/ha [3, 13]
30 to 44%: pest or weed control at 140 g/ha [1, 9] | pest or weed control at 35 g/ha [3, 11]
